From patent US9062028B2, “Bicyclic nitrogen containing heteroaryl TGR5 receptor modulators” (Bristol-Myers Squibb Company, priority 2011, dated 2015) come the findings set out here.

Where a name gives a salt, the structure may show the parent alone.

The target of this assay is T1, recombinant human TGR5 (Homo sapiens, UniProt Q8TDU6).
T1 construct: expressed in transfected cells
T1 sequence (Q8TDU6 1-330): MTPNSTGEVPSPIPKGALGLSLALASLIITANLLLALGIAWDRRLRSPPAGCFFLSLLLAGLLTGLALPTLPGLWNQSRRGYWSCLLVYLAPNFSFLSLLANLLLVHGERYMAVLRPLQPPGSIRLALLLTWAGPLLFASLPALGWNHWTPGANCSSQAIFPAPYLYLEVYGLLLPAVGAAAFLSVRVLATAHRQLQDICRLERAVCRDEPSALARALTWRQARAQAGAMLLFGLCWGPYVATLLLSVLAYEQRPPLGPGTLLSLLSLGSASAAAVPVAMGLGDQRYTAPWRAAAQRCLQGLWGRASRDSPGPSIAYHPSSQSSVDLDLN
Description: cAMP assay (cAMP accumulation, HTRF) in CHOK1 cells stably expressing TGR5. The format is cell-based. Conditions: CHOK1 cells stably expressing human TGR5, 30 minutes at RT, 1% DMSO. The method in brief:
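Agonist-induced cAMP accumulation: stable TGR5-CHOK1 cells treated 30 min at RT with compound (1% DMSO) plus 0.1 mM IBMX. HTRF ratio converted to nM cAMP via standard curve; EC50 from four-parameter logistic fit, midpoint between baseline and maximum.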
The term EC50 denotes the concentration that produces a half-maximal response. For the compound `Cc1c(Cl)cccc1OCCCC(=O)N1CCCOc2c(-c3cnn(Cc4ccc(C(=O)N[C@@H](CC(=O)O)C(=O)O)cc4)c3)cccc21` [Example 767, (S)-2-(4-((4-(5-(4-(3-Chloro-2-methylphenoxy)butanoyl)-2,3,4,5-tetrahydrobenzo[b][1,4]oxazepin-9-yl)-1H-pyrazol-1-yl)methyl)benzamido)succinic acid], the EC50 was 1520 nM.

`Cc1c(Cl)cccc1OCCOC(=O)N1C[C@@H]2C[C@@H]2c2c(-c3cnn(Cc4cc(C(=O)N5C[C@@H](O)C[C@H]5C(=O)O)ccc4Cl)c3)cccc21` [Example 693, (2S,4S)-1-(4-Chloro-3-((4-((1aR,7bS)-3-((2-(3-chloro-2-methylphenoxy)ethoxy)carbonyl)-1a,2,3,7b-tetrahydro-1H-cyclopropa[c]quinolin-7-yl)-1H-pyrazol-1-yl)methyl)benzoyl)-4-hydroxypyrrolidine-2-carboxylic acid]: the EC50 was determined as 188 nM.

Turning to `Cc1cccc(CCOCC(=O)N2CCCc3c(-c4cnn(Cc5cccc(C(=O)O)c5)c4)cccc32)c1C` [Example 15, 3-((4-(1-(2-(2,3-Dimethylphenethoxy)acetyl)-1,2,3,4-tetrahydroquinolin-5-yl)-1H-pyrazol-1-yl)methyl)benzoic acid], the EC50 is 5900 nM.

With `Cc1c(Cl)cccc1OCCCC(=O)N1C[C@@H]2C[C@@H]2c2c(-c3cnn(Cc4cccc(C(=O)NCC(=O)O)c4)c3)cccc21` (single isomer, unassigned) [Example 244], the EC50 was found to be 46 nM.

For `Cc1c(Cl)cccc1OCCCC(=O)N1CCSc2c(-c3cnn(Cc4cccc(C(=O)NCC(C)(C)O)c4)c3)cccc21` [Example 593, 3-((4-(4-(4-(3-Chloro-2-methylphenoxy)butanoyl)-3,4-dihydro-2H-benzo[b][1,4]thiazin-8-yl)-1H-pyrazol-1-yl)methyl)-N-(2-hydroxy-2-methylpropyl)benzamide], the EC50 was 42 nM.

On to `Cc1cccc(OCCCC(=O)N2CCSc3c(-c4cnn(Cc5c(F)cc(C(=O)NCS(=O)(=O)O)cc5Cl)c4)cccc32)c1C` [Example 578, (3-Chloro-4-((4-(4-(4-(2,3-dimethylphenoxy)butanoyl)-3,4-dihydro-2H-benzo[b][1,4]thiazin-8-yl)-1H-pyrazol-1-yl)methyl)-5-fluorobenzamido) methanesulfonic acid], for which the EC50 was 45 nM.

As for `Cc1cccc(OCCCC(=O)N2CCCc3c(-c4ccc(OCc5cccc(C(=O)O)c5)cn4)cccc32)c1C` [Example 123, 3-((6-(1-(4-(2,3-Dimethylphenoxy)butanoyl)-1,2,3,4-tetrahydroquinolin-5-yl)pyridin-3-yloxy)methyl)benzoic acid], the half-maximal effective concentration (EC50) is 1270 nM.

As for `Cc1c(Cl)cccc1OCCCC(=O)N1CCCc2c(-c3cnn(CC(=O)O)c3)cccc21` [Example 197, 2-(4-(1-(4-(3-Chloro-2-methylphenoxy)butanoyl)-1,2,3,4-tetrahydroquinolin-5-yl)-1H-pyrazol-1-yl)acetic acid], the EC50 was found to be 2150 nM.

In the case of `Cc1c(Cl)cccc1OCCCC(=O)N1CCSc2c(-c3cnn(Cc4c(F)cc(C(=O)NCC(=O)O)cc4Cl)c3)cccc21` [Example 581, 2-(3-Chloro-4-((4-(4-(4-(3-chloro-2-methylphenoxy)butanoyl)-3,4-dihydro-2H-benzo[b][1,4]thaizin-8-yl)-1H-pyrazol-1-yl)methyl)-5-fluorobenzamido)acetic acid], the EC50 is 38 nM.

For the compound `Cc1c(Cl)cccc1OC(C)(C)COC(=O)N1CCCOc2c(-c3cnn(Cc4c(F)cc(C(=O)NCCS(=O)(=O)O)cc4Cl)c3)cccc21` [Example 807, 2-(3-Chloro-4-((4-(5-((2-(3-chloro-2-methylphenoxy)-2-methylpropoxy)carbonyl)-2,3,4,5-tetrahydrobenzo[b][1,4]oxazepin-9-yl)-1H-pyrazol-1-yl)methyl)-5-fluorobenzamido)ethanesulfonic acid], the EC50 amounted to 1330 nM.

On to `Cc1cccc(OCCCC(=O)N2CCCc3c(-c4cnn(Cc5cccc(C(=O)N(CC(=O)O)CC(=O)O)c5)c4)cccc32)c1C` [Example 475, 2,2′-(3-((4-(1-(4-(2,3-Dimethylphenoxy)butanoyl)-1,2,3,4-tetrahydroquinolin-5-yl)-1H-pyrazol-1-yl)methyl)benzoylazanediyl)diacetic acid], for which the concentration for a half-maximal effect (EC50) was found to be 2600 nM.

As for `Cc1cccc(OCCCC(=O)N2CCCc3c(-c4cccc(COC(=O)NCC(C)C(=O)O)c4)cccc32)c1C` (stereo not drawn) [Example 270, 3-((3-(1-(4-(2,3-Dimethylphenoxy)butanoyl)-1,2,3,4-tetrahydroquinolin-5-yl)benzyloxy)carbonylamino)-2-methylpropanoic acid], the EC50 was determined as 608 nM.

`Cc1c(Cl)cccc1OCCCC(=O)N1CCSc2c(-c3cnn(Cc4cccc(C(=O)NCCS(=O)(=O)O)c4)c3)cccc21` [Example 564, 2-(3-((4-(4-(4-(3-Chloro-2-methylphenoxy)butanoyl)-3,4-dihydro-2H-benzo[b][1,4]thiazin-8-yl)-1H-pyrazol-1-yl)methyl)benzamido) ethanesulfonic acid]: the concentration for a half-maximal effect (EC50) is 49 nM.

Regarding `Cc1cccc(OCCCC(=O)N2CCCc3c(-c4cn(Cc5cccc(C(=O)O)c5)nc4C)cccc32)c1C` [Example 32G, 3-((4-(1-(4-(2,3-Dimethylphenoxy)butanoyl)-1,2,3,4-tetrahydroquinolin-5-yl)-3-methyl-1H-pyrazol-1-yl)methyl)benzoic acid], the EC50 stood at 636 nM.

`Cc1c(Cl)cccc1OCCCC(=O)N1CCCCc2c(-c3cnn(Cc4cccc(C(=O)NCCC(=O)O)c4)c3)cccc21` [Example 730, 3-(3-((4-(1-(4-(3-Chloro-2-methylphenoxy)butanoyl)-2,3,4,5-tetrahydro-1H-benzo[b]azepin-6-yl)-1H-pyrazol-1-yl)methyl)benzamido)propanoic acid]: the 50% effective concentration (EC50) came to 188 nM.

As to `Cc1c(Cl)cccc1OCCOC(=O)N1CC(F)(F)COc2c(-c3cnn(Cc4c(F)cc(C(=O)O)cc4Cl)c3)cccc21` [Example 336, 3-Chloro-4-((4-(5-((2-(3-chloro-2-methylphenoxy)ethoxy)carbonyl)-3,3-difluoro-2,3,4,5-tetrahydrobenzo[b][1,4]oxazepin-9-yl)-1H-pyrazol-1-yl)methyl)-5-fluorobenzoic acid], the EC50 is 173 nM.

Take `Cc1cccc(OCCCC(=O)N2CCCc3c(-c4cnn(Cc5ccc[n+](CC(=O)O)c5)c4)cccc32)c1C` [Example 466, 1-(Carboxymethyl)-3-((4-(1-(4-(2,3-dimethylphenoxy)butanoyl)-1,2,3,4-tetrahydroquinolin-5-yl)-1H-pyrazol-1-yl)methyl)pyridinium, TFA salt]: the EC50 amounted to 3930 nM.

With `[2H]C([2H])(COC(=O)N1CCCOc2c(-c3cnn(Cc4c(F)cc(C(=O)O)cc4Cl)c3)cccc21)Oc1cccc(Cl)c1C` [Example 418, 3-Chloro-4-((4-(5-((2-(3-chloro-2-methylphenoxy)-2,2-dideuteroethoxy)carbonyl)-2,3,4,5-tetrahydrobenzo[b][1,4]oxazepin-9-yl)-1H-pyrazol-1-yl)methyl)-5-fluorobenzoic acid], the EC50 turned out to be 185 nM.

Take `Cc1cccc(OCCCC(=O)N2CCCc3c(-c4cnc(OCC(=O)O)nc4)cccc32)c1C` [Example 124, 2-(5-(1-(4-(2,3-Dimethylphenoxy)butanoyl)-1,2,3,4-tetrahydroquinolin-5-yl)pyrimidin-2-yloxy)acetic acid, TFA salt]: the EC50 turned out to be 5000 nM.

For `Cc1cccc(OCCCC(=O)N2CCCc3c(-c4cnn(Cc5cccc(S(=O)(=O)N[C@@H](CCC[N+](C)(C)C)C(=O)O)c5)c4)cccc32)c1C` [Example 507, (S)-4-Carboxy-4-(3-((4-(1-(4-(2,3-dimethylphenoxy)butanoyl)-1,2,3,4-tetrahydroquinolin-5-yl)-1H-pyrazol-1-yl)methyl)phenyl-sulfonamido)-N,N, N-trimethylbutan-1-aminium], the EC50 is 2110 nM.

For the compound `Cc1c(Cl)cccc1OCCOC(=O)N1C[C@@H]2C[C@@H]2c2c(-c3cnn(Cc4cccc(NC(=O)NCS(=O)(=O)O)c4)c3)cccc21` [Example 527, (3-(3-((4-((1aR,7bS)-3-((2-(3-Chloro-2-methyl-phenoxy)ethoxy)carbonyl)-1a,2,3,7b-tetrahydro-1H-cyclopropa[c]quinolin-7-yl)-1H-pyrazol-1-yl)methyl)phenyl)ureido) methanesulfonic acid], the EC50 stood at 184 nM.
